Numbers after ± are expanded uncertainties.
Test: xn = mol fraction of the nth substance listed
Settings: 101 kPa, Liquid

CCOC(=O)OCC [diethyl carbonate] + CCCCCCO
Settings | mass density [kg/m3] | speed of sound [m/s] | viscosity [mPa·s]
293.15 K, x1 = 0.0502 | 825.96 ± 0.72 | 1301 ± 11 | 4.731 ± 0.21
293.15 K, x1 = 0.1123 | 834.86 ± 0.7 | 1291 ± 11 | 4.164 ± 0.18
293.15 K, x1 = 0.1499 | 840.29 ± 0.68 | 1285 ± 10 | 3.715 ± 0.17
293.15 K, x1 = 0.2103 | 849.1 ± 0.66 | 1275 ± 10 | 3.178 ± 0.14
293.15 K, x1 = 0.2508 | 855.05 ± 0.64 | 1268 ± 10 | 2.837 ± 0.13
293.15 K, x1 = 0.3121 | 864.19 ± 0.61 | 1259 ± 10 | 2.382 ± 0.11
293.15 K, x1 = 0.3576 | 871.02 ± 0.59 | 1252 ± 10 | 2.078 ± 0.096
293.15 K, x1 = 0.4113 | 879.15 ± 0.57 | 1245 ± 10 | 1.757 ± 0.082
293.15 K, x1 = 0.4632 | 887.08 ± 0.55 | 1239 ± 10 | 1.488 ± 0.07
293.15 K, x1 = 0.5111 | 894.51 ± 0.52 | 1234 ± 10 | 1.247 ± 0.06
293.15 K, x1 = 0.552 | 900.88 ± 0.51 | 1230 ± 10 | 1.115 ± 0.054
293.15 K, x1 = 0.6008 | 908.59 ± 0.48 | 1226 ± 10 | 0.956 ± 0.048
293.15 K, x1 = 0.6498 | 916.39 ± 0.46 | 1222 ± 10 | 0.863 ± 0.044
293.15 K, x1 = 0.7108 | 926.19 ± 0.43 | 1219 ± 10 | 0.859 ± 0.043
293.15 K, x1 = 0.7554 | 933.45 ± 0.41 | 1216 ± 10 | 0.84 ± 0.043
293.15 K, x1 = 0.8112 | 942.65 ± 0.39 | 1213 ± 10 | 0.831 ± 0.042
293.15 K, x1 = 0.8501 | 949.13 ± 0.37 | 1211 ± 10 | 0.825 ± 0.042
293.15 K, x1 = 0.9002 | 957.5 ± 0.35 | 1208 ± 10 | 0.818 ± 0.042
293.15 K, x1 = 0.9555 | 966.89 ± 0.32 | 1206 ± 10 | 0.803 ± 0.041
303.15 K, x1 = 0.0502 | 818.55 ± 0.74 | 1267 ± 10 | 3.486 ± 0.15
303.15 K, x1 = 0.1123 | 827.16 ± 0.71 | 1256 ± 10 | 3.03 ± 0.14
303.15 K, x1 = 0.1499 | 832.48 ± 0.7 | 1249 ± 10 | 2.796 ± 0.13
303.15 K, x1 = 0.2103 | 841.04 ± 0.67 | 1240 ± 10 | 2.403 ± 0.11
303.15 K, x1 = 0.2508 | 846.79 ± 0.66 | 1234 ± 10 | 2.165 ± 0.099
303.15 K, x1 = 0.3121 | 855.69 ± 0.63 | 1225 ± 10 | 1.859 ± 0.086
303.15 K, x1 = 0.3576 | 862.23 ± 0.61 | 1217 ± 10 | 1.621 ± 0.076
303.15 K, x1 = 0.4113 | 870.21 ± 0.59 | 1210 ± 10 | 1.414 ± 0.067
303.15 K, x1 = 0.4632 | 877.88 ± 0.57 | 1204 ± 10 | 1.22 ± 0.059
303.15 K, x1 = 0.5111 | 885.13 ± 0.54 | 1200 ± 10 | 1.063 ± 0.052
303.15 K, x1 = 0.552 | 891.35 ± 0.53 | 1197 ± 10 | 0.951 ± 0.047
303.15 K, x1 = 0.6008 | 898.87 ± 0.51 | 1194 ± 10 | 0.844 ± 0.043
303.15 K, x1 = 0.6498 | 906.42 ± 0.48 | 1193 ± 10 | 0.811 ± 0.041
303.15 K, x1 = 0.7108 | 915.93 ± 0.46 | 1192 ± 10 | 0.804 ± 0.08
303.15 K, x1 = 0.7554 | 923.08 ± 0.44 | 1191 ± 10 | 0.774 ± 0.08
303.15 K, x1 = 0.8112 | 932.03 ± 0.41 | 1190 ± 10 | 0.748 ± 0.039
303.15 K, x1 = 0.8501 | 938.29 ± 0.39 | 1189 ± 10 | 0.73 ± 0.038
303.15 K, x1 = 0.9002 | 946.57 ± 0.37 | 1188 ± 10 | 0.724 ± 0.038
303.15 K, x1 = 0.9555 | 955.77 ± 0.35 | 1187 ± 10 | 0.713 ± 0.037
313.15 K, x1 = 0.0502 | 811.04 ± 0.76 | 1252 ± 10 | 2.621 ± 0.12
313.15 K, x1 = 0.1123 | 819.37 ± 0.73 | 1236 ± 10 | 2.339 ± 0.11
313.15 K, x1 = 0.1499 | 824.54 ± 0.71 | 1224 ± 10 | 2.115 ± 0.097
313.15 K, x1 = 0.2103 | 832.78 ± 0.69 | 1211 ± 10 | 1.856 ± 0.086
313.15 K, x1 = 0.2508 | 838.35 ± 0.67 | 1203 ± 10 | 1.687 ± 0.079
313.15 K, x1 = 0.3121 | 846.97 ± 0.65 | 1192 ± 10 | 1.466 ± 0.07
313.15 K, x1 = 0.3576 | 853.42 ± 0.63 | 1185 ± 10 | 1.319 ± 0.063
313.15 K, x1 = 0.4113 | 861.12 ± 0.61 | 1177 ± 10 | 1.16 ± 0.056
313.15 K, x1 = 0.4632 | 868.59 ± 0.59 | 1170 ± 10 | 1.031 ± 0.051
313.15 K, x1 = 0.5111 | 875.61 ± 0.56 | 1165 ± 10 | 0.912 ± 0.046
313.15 K, x1 = 0.552 | 881.55 ± 0.55 | 1162 ± 10 | 0.826 ± 0.042
313.15 K, x1 = 0.6008 | 888.91 ± 0.53 | 1158 ± 10 | 0.744 ± 0.038
313.15 K, x1 = 0.6498 | 896.35 ± 0.51 | 1155 ± 10 | 0.689 ± 0.036
313.15 K, x1 = 0.7108 | 905.65 ± 0.48 | 1153 ± 10 | 0.61 ± 0.033
313.15 K, x1 = 0.7554 | 912.55 ± 0.46 | 1152 ± 10 | 0.607 ± 0.032
313.15 K, x1 = 0.8112 | 921.16 ± 0.43 | 1151 ± 10 | 0.602 ± 0.032
313.15 K, x1 = 0.8501 | 927.49 ± 0.42 | 1150 ± 10 | 0.606 ± 0.032
313.15 K, x1 = 0.9002 | 935.57 ± 0.39 | 1148 ± 10 | 0.61 ± 0.033
313.15 K, x1 = 0.9555 | 944.49 ± 0.37 | 1146 ± 10 | 0.615 ± 0.033
323.15 K, x1 = 0.0502 | 803.29 ± 0.77 | 1204 ± 10 | 2.06 ± 0.095
323.15 K, x1 = 0.1123 | 811.3 ± 0.75 | 1184 ± 10 | 1.825 ± 0.085
323.15 K, x1 = 0.1499 | 816.2 ± 0.73 | 1172 ± 10 | 1.689 ± 0.079
323.15 K, x1 = 0.2103 | 824.2 ± 0.71 | 1160 ± 10 | 1.488 ± 0.071
323.15 K, x1 = 0.2508 | 829.57 ± 0.69 | 1153 ± 10 | 1.367 ± 0.065
323.15 K, x1 = 0.3121 | 837.88 ± 0.67 | 1143 ± 10 | 1.22 ± 0.059
323.15 K, x1 = 0.3576 | 844.05 ± 0.65 | 1137 ± 10 | 1.093 ± 0.054
323.15 K, x1 = 0.4113 | 851.48 ± 0.63 | 1131 ± 10 | 0.97 ± 0.048
323.15 K, x1 = 0.4632 | 858.73 ± 0.61 | 1126 ± 10 | 0.857 ± 0.043
323.15 K, x1 = 0.5111 | 865.59 ± 0.59 | 1123 ± 9 | 0.765 ± 0.039
323.15 K, x1 = 0.552 | 871.51 ± 0.57 | 1121 ± 9 | 0.689 ± 0.036
323.15 K, x1 = 0.6008 | 878.65 ± 0.55 | 1119 ± 9 | 0.607 ± 0.033
323.15 K, x1 = 0.6498 | 885.85 ± 0.53 | 1117 ± 9 | 0.568 ± 0.031
323.15 K, x1 = 0.7108 | 894.96 ± 0.5 | 1115 ± 9 | 0.532 ± 0.029
323.15 K, x1 = 0.7554 | 901.77 ± 0.48 | 1114 ± 9 | 0.535 ± 0.029
323.15 K, x1 = 0.8112 | 910.41 ± 0.46 | 1113 ± 9 | 0.537 ± 0.029
323.15 K, x1 = 0.8501 | 916.42 ± 0.44 | 1112 ± 9 | 0.54 ± 0.03
323.15 K, x1 = 0.9002 | 924.3 ± 0.42 | 1111 ± 9 | 0.544 ± 0.03
323.15 K, x1 = 0.9555 | 933.24 ± 0.4 | 1110 ± 9 | 0.548 ± 0.03

Reference: the NIST ThermoML archive (doi:10.1021/je600519p)
